# Results: PMC4767141, “Discovery of Potent, Orally Bioavailable, Small-Molecule Inhibitors of WNT Signaling from a Cell-Based Pathway Screen” (Journal of Medicinal Chemistry, 2015)
# Assays:
# [1] = molecular target: T1, HIPK3 (Homo sapiens, UniProt Q9H422); assay: Millipore kinase panel; type: biochemical; conditions: read-out: % Control
# T1 construct: purchased Millipore KinaseProfiler (kinases); Cerep (receptors and ion channels)
# [2] = molecular target: T2, GAL2 (h) (Homo sapiens, UniProt O43603); assay: CEREP binding panel; conditions: agonist radioligand, read-out: % Inhibition of Control Specific Binding
# T2 construct: purchased Millipore KinaseProfiler (kinases); Cerep (receptors and ion channels)
# [3] = molecular target: T3, CK1GAMMA1 (Homo sapiens, UniProt Q9HCP0); assay: Millipore kinase panel; type: biochemical; conditions: read-out: % Control
# T3 construct: purchased Millipore KinaseProfiler (kinases); Cerep (receptors and ion channels)
# [4] = molecular target: T4, PAR-1BALPHA (Homo sapiens, UniProt Q7KZI7); assay: Millipore kinase panel; type: biochemical; conditions: read-out: % Control
# T4 construct: purchased Millipore KinaseProfiler (kinases); Cerep (receptors and ion channels)
# [5] = system: sst (non-selective); assay: CEREP binding panel; conditions: 10 μM, agonist radioligand
# [6] = system: MKK4; assay: Millipore kinase panel; type: biochemical; conditions: 1 μM, ATP at Km
# [7] = molecular target: T5, MARK1 (Homo sapiens, UniProt Q9P0L2); assay: Millipore kinase panel; type: biochemical; conditions: read-out: % Control
# T5 construct: purchased Millipore KinaseProfiler (kinases); Cerep (receptors and ion channels)
# [8] = molecular target: T6, 5-HT5a (h) (Homo sapiens, UniProt P47898); assay: CEREP binding panel; conditions: agonist radioligand, read-out: % Inhibition of Control Specific Binding
# T6 construct: purchased Millipore KinaseProfiler (kinases); Cerep (receptors and ion channels)
# [9] = molecular target: T7, TRKA (Homo sapiens, UniProt P04629); assay: Millipore kinase panel; type: biochemical; conditions: read-out: % Control
# T7 construct: purchased Millipore KinaseProfiler (kinases); Cerep (receptors and ion channels)
# [10] = molecular target: T8, BMX (Homo sapiens, UniProt P51813); assay: Millipore kinase panel; type: biochemical; conditions: read-out: % Control
# T8 construct: purchased Millipore KinaseProfiler (kinases); Cerep (receptors and ion channels)
# [11] = molecular target: T9, PHKGAMMA2 (Homo sapiens, UniProt P15735); assay: Millipore kinase panel; type: biochemical; conditions: read-out: % Control
# T9 construct: purchased Millipore KinaseProfiler (kinases); Cerep (receptors and ion channels)
# [12] = molecular target: T10, FGFR2 (Homo sapiens, UniProt P21802); assay: Millipore kinase panel; type: biochemical; conditions: read-out: % Control
# T10 construct: purchased Millipore KinaseProfiler (kinases); Cerep (receptors and ion channels)
# [13] = molecular target: T11, RSK2 (Homo sapiens, UniProt P51812); assay: Millipore kinase panel; type: biochemical; conditions: read-out: % Control
# T11 construct: purchased Millipore KinaseProfiler (kinases); Cerep (receptors and ion channels)
# [14] = molecular target: T12, D2S (h) (Homo sapiens, UniProt P14416); assay: CEREP binding panel; conditions: antagonist radioligand, read-out: % Inhibition of Control Specific Binding
# T12 construct: purchased Millipore KinaseProfiler (kinases); Cerep (receptors and ion channels)
# [15] = molecular target: T13, MST2 (Homo sapiens, UniProt Q13188); assay: Millipore kinase panel; type: biochemical; conditions: read-out: % Control
# T13 construct: purchased Millipore KinaseProfiler (kinases); Cerep (receptors and ion channels)
# [16] = molecular target: T14, PDGFRALPHA (Homo sapiens, UniProt P16234); assay: Millipore kinase panel; type: biochemical; conditions: read-out: % Control
# T14 construct: purchased Millipore KinaseProfiler (kinases); Cerep (receptors and ion channels)
# [17] = molecular target: T15, PAK2 (Homo sapiens, UniProt Q13177); assay: Millipore kinase panel; type: biochemical; conditions: read-out: % Control
# T15 construct: purchased Millipore KinaseProfiler (kinases); Cerep (receptors and ion channels)
# [18] = molecular target: T16, EPHB4 (Homo sapiens, UniProt P54760); assay: Millipore kinase panel; type: biochemical; conditions: read-out: % Control
# T16 construct: purchased Millipore KinaseProfiler (kinases); Cerep (receptors and ion channels)
# [19] = molecular target: T17, β1 (h) (Homo sapiens, UniProt P08588); assay: CEREP binding panel; conditions: agonist radioligand, read-out: % Inhibition of Control Specific Binding
# T17 construct: purchased Millipore KinaseProfiler (kinases); Cerep (receptors and ion channels)
# [20] = molecular target: T18, ULK2 (Homo sapiens, UniProt Q8IYT8); assay: Millipore kinase panel; type: biochemical; conditions: read-out: % Control
# T18 construct: purchased Millipore KinaseProfiler (kinases); Cerep (receptors and ion channels)
# [21] = molecular target: T19, Y1 (h) (Homo sapiens, UniProt P25929); assay: CEREP binding panel; conditions: agonist radioligand, read-out: % Inhibition of Control Specific Binding
# T19 construct: purchased Millipore KinaseProfiler (kinases); Cerep (receptors and ion channels)
# [22] = molecular target: T20, TIE2 (Homo sapiens, UniProt Q02763); assay: Millipore kinase panel; type: biochemical; conditions: read-out: % Control
# T20 construct: purchased Millipore KinaseProfiler (kinases); Cerep (receptors and ion channels)
# [23] = molecular target: T21, LKB1 (Homo sapiens, UniProt Q15831); assay: Millipore kinase panel; type: biochemical; conditions: read-out: % Control
# T21 construct: purchased Millipore KinaseProfiler (kinases); Cerep (receptors and ion channels)
# [24] = molecular target: T22, SNK (Homo sapiens, UniProt Q9NYY3); assay: Millipore kinase panel; type: biochemical; conditions: read-out: % Control
# T22 construct: purchased Millipore KinaseProfiler (kinases); Cerep (receptors and ion channels)
# [25] = molecular target: T23, NOP (ORL1) (h) (Homo sapiens, UniProt P41146); assay: CEREP binding panel; conditions: agonist radioligand, read-out: % Inhibition of Control Specific Binding
# T23 construct: purchased Millipore KinaseProfiler (kinases); Cerep (receptors and ion channels)
# [26] = molecular target: T24, MEK1 (Homo sapiens, UniProt Q02750); assay: Millipore kinase panel; type: biochemical; conditions: read-out: % Control
# T24 construct: purchased Millipore KinaseProfiler (kinases); Cerep (receptors and ion channels)
# [27] = molecular target: T25, CDK2/CYCLINA (Homo sapiens, UniProt P24941); assay: Millipore kinase panel; type: biochemical; conditions: read-out: % Control
# T25 construct: purchased Millipore KinaseProfiler (kinases); Cerep (receptors and ion channels)
# [28] = molecular target: T26, LOK (Homo sapiens, UniProt O94804); assay: Millipore kinase panel; type: biochemical; conditions: read-out: % Control
# T26 construct: purchased Millipore KinaseProfiler (kinases); Cerep (receptors and ion channels)
# [29] = molecular target: T27, AT1 (h) (Homo sapiens, UniProt P30556); assay: CEREP binding panel; conditions: antagonist radioligand, read-out: % Inhibition of Control Specific Binding
# T27 construct: purchased Millipore KinaseProfiler (kinases); Cerep (receptors and ion channels)
# [30] = molecular target: T28, FAK (Homo sapiens, UniProt Q05397); assay: Millipore kinase panel; type: biochemical; conditions: read-out: % Control
# T28 construct: purchased Millipore KinaseProfiler (kinases); Cerep (receptors and ion channels)
# [31] = molecular target: T29, CDK7/CYCLINH/MAT1 (Homo sapiens, UniProt P50613); assay: Millipore kinase panel; type: biochemical; conditions: read-out: % Control
# T29 construct: purchased Millipore KinaseProfiler (kinases); Cerep (receptors and ion channels)
# [32] = molecular target: T30, CXCR2 (IL-8B) (h) (Homo sapiens, UniProt P25025); assay: CEREP binding panel; conditions: agonist radioligand, read-out: % Inhibition of Control Specific Binding
# T30 construct: purchased Millipore KinaseProfiler (kinases); Cerep (receptors and ion channels)
# [33] = molecular target: T31, TAO3 (Homo sapiens, UniProt Q9H2K8); assay: Millipore kinase panel; type: biochemical; conditions: read-out: % Control
# T31 construct: purchased Millipore KinaseProfiler (kinases); Cerep (receptors and ion channels)
# [34] = molecular target: T32, HASPIN (Homo sapiens, UniProt Q8TF76); assay: Millipore kinase panel; type: biochemical; conditions: read-out: % Control
# T32 construct: purchased Millipore KinaseProfiler (kinases); Cerep (receptors and ion channels)
# [35] = molecular target: T33, TSSK1 (Homo sapiens, UniProt Q9BXA7); assay: Millipore kinase panel; type: biochemical; conditions: read-out: % Control
# T33 construct: purchased Millipore KinaseProfiler (kinases); Cerep (receptors and ion channels)
# [36] = molecular target: T34, FGFR4 (Homo sapiens, UniProt P22455); assay: Millipore kinase panel; type: biochemical; conditions: read-out: % Control
# T34 construct: purchased Millipore KinaseProfiler (kinases); Cerep (receptors and ion channels)
# [37] = molecular target: T35, SGK (Homo sapiens, UniProt O00141); assay: Millipore kinase panel; type: biochemical; conditions: read-out: % Control
# T35 construct: purchased Millipore KinaseProfiler (kinases); Cerep (receptors and ion channels)
# [38] = molecular target: T36, PYK2 (Homo sapiens, UniProt Q14289); assay: Millipore kinase panel; type: biochemical; conditions: read-out: % Control
# T36 construct: purchased Millipore KinaseProfiler (kinases); Cerep (receptors and ion channels)
# [39] = molecular target: T37, EEF-2K (Homo sapiens, UniProt O00418); assay: Millipore kinase panel; type: biochemical; conditions: read-out: % Control
# T37 construct: purchased Millipore KinaseProfiler (kinases); Cerep (receptors and ion channels)
# [40] = molecular target: T38, CCK1 (CCKA) (h) (Homo sapiens, UniProt P32238); assay: CEREP binding panel; conditions: agonist radioligand, read-out: % Inhibition of Control Specific Binding
# T38 construct: purchased Millipore KinaseProfiler (kinases); Cerep (receptors and ion channels)
# [41] = molecular target: T39, ROCK-I (Homo sapiens, UniProt Q13464); assay: Millipore kinase panel; type: biochemical; conditions: read-out: % Control
# T39 construct: purchased Millipore KinaseProfiler (kinases); Cerep (receptors and ion channels)
# [42] = molecular target: T40, IGF-1R, ACTIVATED (Homo sapiens, UniProt P08069); assay: Millipore kinase panel; type: biochemical; conditions: read-out: % Control
# T40 construct: purchased Millipore KinaseProfiler (kinases); Cerep (receptors and ion channels)
# [43] = molecular target: T41, 5-HT2B (h) (Homo sapiens, UniProt P41595); assay: CEREP binding panel; conditions: agonist radioligand, read-out: % Inhibition of Control Specific Binding
# T41 construct: purchased Millipore KinaseProfiler (kinases); Cerep (receptors and ion channels)
# T41 sequence (P41595 whole entry): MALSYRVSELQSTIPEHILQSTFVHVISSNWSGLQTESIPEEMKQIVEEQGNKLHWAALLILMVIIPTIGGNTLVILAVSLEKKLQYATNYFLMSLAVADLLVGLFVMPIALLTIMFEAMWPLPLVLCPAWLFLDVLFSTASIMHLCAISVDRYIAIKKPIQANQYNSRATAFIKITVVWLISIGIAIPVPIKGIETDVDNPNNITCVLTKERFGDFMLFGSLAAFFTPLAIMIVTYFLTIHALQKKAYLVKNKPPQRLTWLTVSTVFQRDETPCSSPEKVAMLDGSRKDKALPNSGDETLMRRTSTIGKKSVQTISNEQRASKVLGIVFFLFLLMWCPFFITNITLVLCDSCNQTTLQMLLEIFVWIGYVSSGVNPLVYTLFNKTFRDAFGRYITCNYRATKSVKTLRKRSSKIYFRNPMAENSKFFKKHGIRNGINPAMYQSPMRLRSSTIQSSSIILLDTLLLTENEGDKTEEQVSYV
# T12 sequence (P14416 1-414 isoform P14416-2): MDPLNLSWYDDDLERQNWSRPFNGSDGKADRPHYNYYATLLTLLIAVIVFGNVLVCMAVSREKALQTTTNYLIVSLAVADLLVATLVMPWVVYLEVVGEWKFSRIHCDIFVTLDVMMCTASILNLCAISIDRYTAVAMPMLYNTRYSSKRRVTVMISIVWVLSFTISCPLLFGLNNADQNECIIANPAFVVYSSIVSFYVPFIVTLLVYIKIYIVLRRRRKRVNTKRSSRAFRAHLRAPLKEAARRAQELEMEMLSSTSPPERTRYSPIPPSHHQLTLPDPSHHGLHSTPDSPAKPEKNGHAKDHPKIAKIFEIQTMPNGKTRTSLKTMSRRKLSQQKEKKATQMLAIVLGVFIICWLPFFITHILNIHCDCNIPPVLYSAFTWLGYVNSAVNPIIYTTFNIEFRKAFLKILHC
# T27 sequence (P30556 whole entry): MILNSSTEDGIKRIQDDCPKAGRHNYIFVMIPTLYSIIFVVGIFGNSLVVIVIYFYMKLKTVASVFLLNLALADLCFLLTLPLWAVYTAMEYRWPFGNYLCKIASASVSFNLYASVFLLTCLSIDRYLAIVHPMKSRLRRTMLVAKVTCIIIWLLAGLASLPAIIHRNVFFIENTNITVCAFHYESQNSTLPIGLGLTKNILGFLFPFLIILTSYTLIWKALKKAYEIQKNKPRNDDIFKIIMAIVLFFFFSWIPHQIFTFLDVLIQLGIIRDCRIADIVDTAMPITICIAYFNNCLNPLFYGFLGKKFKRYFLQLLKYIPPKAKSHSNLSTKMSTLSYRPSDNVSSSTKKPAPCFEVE
# T15 sequence (Q13177 whole entry): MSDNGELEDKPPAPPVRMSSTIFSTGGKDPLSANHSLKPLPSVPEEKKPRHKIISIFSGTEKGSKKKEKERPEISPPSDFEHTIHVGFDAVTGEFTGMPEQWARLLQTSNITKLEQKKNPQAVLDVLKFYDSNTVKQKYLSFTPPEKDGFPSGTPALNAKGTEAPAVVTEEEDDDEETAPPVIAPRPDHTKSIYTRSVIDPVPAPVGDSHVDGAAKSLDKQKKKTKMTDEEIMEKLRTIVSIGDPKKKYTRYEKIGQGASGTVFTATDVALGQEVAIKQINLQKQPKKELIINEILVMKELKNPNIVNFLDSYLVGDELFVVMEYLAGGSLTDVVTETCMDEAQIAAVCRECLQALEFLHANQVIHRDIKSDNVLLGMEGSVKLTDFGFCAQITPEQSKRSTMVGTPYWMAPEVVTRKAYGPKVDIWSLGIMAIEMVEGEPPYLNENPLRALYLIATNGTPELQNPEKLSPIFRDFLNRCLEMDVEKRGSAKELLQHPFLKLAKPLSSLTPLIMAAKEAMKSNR
# T35 sequence (O00141 whole entry): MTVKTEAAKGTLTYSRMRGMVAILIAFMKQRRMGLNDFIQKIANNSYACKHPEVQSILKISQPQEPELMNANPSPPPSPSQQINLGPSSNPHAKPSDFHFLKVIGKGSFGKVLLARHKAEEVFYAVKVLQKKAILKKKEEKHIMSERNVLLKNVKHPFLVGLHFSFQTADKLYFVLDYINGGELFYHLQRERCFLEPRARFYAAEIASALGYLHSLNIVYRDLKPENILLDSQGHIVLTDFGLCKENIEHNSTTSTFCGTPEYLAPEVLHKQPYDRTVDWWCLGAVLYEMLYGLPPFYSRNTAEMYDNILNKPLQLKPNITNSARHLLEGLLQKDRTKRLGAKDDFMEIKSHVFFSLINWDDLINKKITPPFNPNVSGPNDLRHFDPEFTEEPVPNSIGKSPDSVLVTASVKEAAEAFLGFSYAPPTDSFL
# T40 sequence (P08069 31-1367): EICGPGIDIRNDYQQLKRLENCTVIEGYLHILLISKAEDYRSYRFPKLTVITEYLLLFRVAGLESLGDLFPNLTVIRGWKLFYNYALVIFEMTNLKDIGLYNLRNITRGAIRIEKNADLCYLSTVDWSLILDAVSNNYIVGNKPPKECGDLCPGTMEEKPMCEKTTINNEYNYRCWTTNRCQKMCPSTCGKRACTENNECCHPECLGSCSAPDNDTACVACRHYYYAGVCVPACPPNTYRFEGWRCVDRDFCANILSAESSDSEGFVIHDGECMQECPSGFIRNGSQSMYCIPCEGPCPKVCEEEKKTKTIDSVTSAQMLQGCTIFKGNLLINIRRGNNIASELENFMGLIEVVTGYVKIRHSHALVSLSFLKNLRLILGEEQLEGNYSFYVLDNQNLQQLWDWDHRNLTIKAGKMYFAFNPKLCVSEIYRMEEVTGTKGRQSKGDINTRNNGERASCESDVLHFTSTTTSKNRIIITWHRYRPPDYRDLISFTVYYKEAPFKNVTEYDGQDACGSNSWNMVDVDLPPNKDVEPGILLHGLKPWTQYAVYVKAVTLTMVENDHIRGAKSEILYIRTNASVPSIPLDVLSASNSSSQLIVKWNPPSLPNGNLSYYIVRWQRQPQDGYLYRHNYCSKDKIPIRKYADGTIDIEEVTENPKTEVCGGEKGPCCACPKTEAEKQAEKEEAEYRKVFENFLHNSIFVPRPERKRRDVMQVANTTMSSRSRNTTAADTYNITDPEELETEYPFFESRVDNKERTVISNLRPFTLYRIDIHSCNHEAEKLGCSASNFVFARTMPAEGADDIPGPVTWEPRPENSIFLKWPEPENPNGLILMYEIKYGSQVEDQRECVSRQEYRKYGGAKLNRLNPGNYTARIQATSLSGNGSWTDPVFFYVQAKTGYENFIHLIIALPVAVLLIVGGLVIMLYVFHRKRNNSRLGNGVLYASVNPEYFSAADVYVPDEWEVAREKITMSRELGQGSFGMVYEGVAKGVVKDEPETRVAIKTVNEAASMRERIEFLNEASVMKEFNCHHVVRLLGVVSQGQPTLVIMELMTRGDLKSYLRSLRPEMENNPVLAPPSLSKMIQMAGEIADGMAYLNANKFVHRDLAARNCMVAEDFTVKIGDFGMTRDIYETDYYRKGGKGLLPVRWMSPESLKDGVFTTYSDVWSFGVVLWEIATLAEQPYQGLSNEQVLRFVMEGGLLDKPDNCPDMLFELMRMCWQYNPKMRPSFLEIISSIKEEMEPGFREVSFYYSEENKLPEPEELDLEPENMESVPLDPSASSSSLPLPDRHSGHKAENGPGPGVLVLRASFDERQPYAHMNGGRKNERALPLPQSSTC
# T34 sequence (P22455 22-802): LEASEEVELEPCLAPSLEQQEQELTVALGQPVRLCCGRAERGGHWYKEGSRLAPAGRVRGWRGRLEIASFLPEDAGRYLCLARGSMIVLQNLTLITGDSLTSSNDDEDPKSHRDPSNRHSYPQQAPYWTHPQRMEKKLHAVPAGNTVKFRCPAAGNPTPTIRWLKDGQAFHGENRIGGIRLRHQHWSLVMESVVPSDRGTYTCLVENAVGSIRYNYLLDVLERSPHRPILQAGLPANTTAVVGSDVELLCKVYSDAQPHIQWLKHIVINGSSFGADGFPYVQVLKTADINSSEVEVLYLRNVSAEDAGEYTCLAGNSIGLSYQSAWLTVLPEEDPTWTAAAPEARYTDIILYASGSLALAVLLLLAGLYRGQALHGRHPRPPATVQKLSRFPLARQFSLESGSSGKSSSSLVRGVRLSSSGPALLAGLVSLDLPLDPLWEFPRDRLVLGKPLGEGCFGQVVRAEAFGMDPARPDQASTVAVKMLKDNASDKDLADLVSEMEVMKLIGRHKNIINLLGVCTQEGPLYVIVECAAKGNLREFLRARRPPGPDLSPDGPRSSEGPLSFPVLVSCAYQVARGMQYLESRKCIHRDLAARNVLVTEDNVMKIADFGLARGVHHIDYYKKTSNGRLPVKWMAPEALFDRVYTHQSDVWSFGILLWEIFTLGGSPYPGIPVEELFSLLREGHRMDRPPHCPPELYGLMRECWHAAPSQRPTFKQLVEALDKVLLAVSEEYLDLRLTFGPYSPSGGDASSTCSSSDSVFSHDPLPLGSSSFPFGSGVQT
# T3 sequence (Q9HCP0 whole entry): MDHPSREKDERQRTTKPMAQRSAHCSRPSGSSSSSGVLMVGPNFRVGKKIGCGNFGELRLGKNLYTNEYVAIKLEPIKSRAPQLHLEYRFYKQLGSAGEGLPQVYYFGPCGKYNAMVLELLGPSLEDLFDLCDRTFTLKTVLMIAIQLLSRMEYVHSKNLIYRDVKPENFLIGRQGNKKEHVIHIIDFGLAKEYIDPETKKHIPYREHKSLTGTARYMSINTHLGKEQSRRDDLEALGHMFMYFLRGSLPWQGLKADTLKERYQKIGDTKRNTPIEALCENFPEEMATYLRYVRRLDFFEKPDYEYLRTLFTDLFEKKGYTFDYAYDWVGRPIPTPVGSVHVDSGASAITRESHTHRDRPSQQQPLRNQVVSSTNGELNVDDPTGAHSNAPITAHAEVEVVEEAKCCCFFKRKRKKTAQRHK
compound,measurement,setting,value
"Cn1cc(-c2ccc(-c3cncc(Cl)c3N3CCC4(CCNC4=O)CC3)cc2)cn1 [Compound 74, 8-(3-Chloro-5-(4-(1-methyl-1H-pyrazol-4-yl)phenyl)pyridin-4-yl)-2,8-diazaspiro[4.5]decan-1-one]",remaining activity at 1 µM,[1],-2%
same,inhibition at 10 µM,[2],2%
same,remaining activity at 1 µM,[3],-25%
same,remaining activity at 1 µM,[4],4%
same,% Inhibition of Control Specific Binding,[5],4%
same,% Control,[6],13%
same,remaining activity at 1 µM,[7],2%
same,inhibition at 10 µM,[8],1%
same,remaining activity at 1 µM,[9],-7%
same,remaining activity at 1 µM,[10],-2%
same,remaining activity at 1 µM,[11],4%
same,remaining activity at 1 µM,[12],-6%
same,remaining activity at 1 µM,[13],-12%
same,inhibition at 10 µM,[14],5%
same,remaining activity at 1 µM,[15],4%
same,remaining activity at 1 µM,[16],-5%
same,remaining activity at 1 µM,[17],-7%
same,remaining activity at 1 µM,[18],10%
same,inhibition at 10 µM,[19],5%
same,remaining activity at 1 µM,[20],-2%
same,inhibition at 10 µM,[21],-7%
same,remaining activity at 1 µM,[22],-25%
same,remaining activity at 1 µM,[23],5%
same,remaining activity at 1 µM,[24],-1%
same,inhibition at 10 µM,[25],3%
same,remaining activity at 1 µM,[26],10%
same,remaining activity at 1 µM,[27],-8%
same,remaining activity at 1 µM,[28],-6%
same,inhibition at 10 µM,[29],8%
same,remaining activity at 1 µM,[30],-5%
same,remaining activity at 1 µM,[31],4%
same,inhibition at 10 µM,[32],-6%
same,remaining activity at 1 µM,[33],-24%
same,remaining activity at 1 µM,[34],-11%
same,remaining activity at 1 µM,[35],2%
same,remaining activity at 1 µM,[36],0%
same,remaining activity at 1 µM,[37],-4%
same,remaining activity at 1 µM,[38],5%
same,remaining activity at 1 µM,[39],15%
same,inhibition at 10 µM,[40],2%
same,remaining activity at 1 µM,[41],-1%
same,remaining activity at 1 µM,[42],11%
same,inhibition at 10 µM,[43],6%
"O=C1NCCC12CCN(c1c(Cl)cncc1-c1ccc(N3CCOCC3)cc1)CC2 [Compound 44, 8-(3-Chloro-5-(4-morpholin-4-ylphenyl)pyridin-4-yl)-2,8-diazaspiro[4.5]decan-1-one]",remaining activity at 1 µM,[1],7%
same,inhibition at 10 µM,[2],-22%
same,remaining activity at 1 µM,[3],2%
same,remaining activity at 1 µM,[4],-6%
same,% Inhibition of Control Specific Binding,[5],-16%
same,% Control,[6],46%
same,remaining activity at 1 µM,[7],4%
same,inhibition at 10 µM,[8],11%
same,remaining activity at 1 µM,[9],17%
same,remaining activity at 1 µM,[10],-2%
same,remaining activity at 1 µM,[11],10%
same,remaining activity at 1 µM,[12],-6%
same,remaining activity at 1 µM,[13],3%
same,inhibition at 10 µM,[14],9%
same,remaining activity at 1 µM,[15],1%
same,remaining activity at 1 µM,[16],2%
same,remaining activity at 1 µM,[17],12%
same,remaining activity at 1 µM,[18],4%
same,inhibition at 10 µM,[19],9%
same,remaining activity at 1 µM,[20],10%
same,inhibition at 10 µM,[21],-10%
same,remaining activity at 1 µM,[22],19%
same,remaining activity at 1 µM,[23],7%
same,remaining activity at 1 µM,[24],-5%
same,inhibition at 10 µM,[25],12%
same,remaining activity at 1 µM,[26],-3%
same,remaining activity at 1 µM,[27],-9%
same,remaining activity at 1 µM,[28],-1%
same,inhibition at 10 µM,[29],2%
same,remaining activity at 1 µM,[30],-14%
same,remaining activity at 1 µM,[31],-10%
same,inhibition at 10 µM,[32],-2%
same,remaining activity at 1 µM,[33],-22%
same,remaining activity at 1 µM,[34],21%
same,remaining activity at 1 µM,[35],11%
same,remaining activity at 1 µM,[36],7%
same,remaining activity at 1 µM,[37],16%
same,remaining activity at 1 µM,[38],-6%
same,remaining activity at 1 µM,[39],-8%
same,inhibition at 10 µM,[40],-16%
same,remaining activity at 1 µM,[41],-7%
same,remaining activity at 1 µM,[42],3%
same,inhibition at 10 µM,[43],-4%
